From paper PMC7125978 (Bioorganic & Medicinal Chemistry, 2010)
pEC50: −log10 of the molar value.

Tests used:
[1] = test system: Respiratory syncytial virus (HeLa); type: cell-based, respiratory syncytial virus (RSV) strain Long; conditions: relative to ribavirin (1)
HCV (Huh-5–2) = experiment: HCV subgenomic replicon luciferase assay in Huh 5-2 cells; type: cell-based, hepatitis C virus (HCV)
Punta toro virus (Vero) = experiment: microbe, parasite or virus in culture; type: cell-based
[2] = test system: Influenza A/H3N2 subtype (MDCK); type: cell-based, influenza virus type A (H3N2)
CEM cell extract = experiment: Prodrug conversion in crude cell extracts; type: in vitro ADME, human; conditions: for efficiency of conversion among the prodrugs: similar trend in HeLa and MDCK cell extracts
uninfected cells = conditions: for Cytotoxicity MCC: minimum cytotoxic concentration, microscopically detectable alteration of cell morphology
several viruses = type: cell-based
Vaccinia virus (HEL) = type: cell-based, vaccinia virus Lederle strain
[3] = cell extract, 37 °C, after 60 min of incubation

## C[C@H](NP(=O)(OC[C@H]1O[C@@H](n2cnc(C(N)=O)n2)[C@H](O)[C@@H]1O)Oc1cccc2ccccc12)C(=O)OCc1ccccc1 (stereo partly drawn) [Compound 13, ribavirin-5′-[1-naphthyl(benzoxy-L-alaninyl)] phosphate]
[1]
  fold less active than ribavirin, respiratory syncytial virus: about threefold
HCV (Huh-5–2)
  potency relative to ribavirin, HCV subgenomic replicon replication: equipotent to ribavirin
Punta toro virus (Vero); Punta Toro virus, Vero, read-out: Antiviral activity EC50, Punta toro virus (Vero)
  pEC50: < 4.00
[2]
  fold lower potency than ribavirin, influenza virus: ~2 fold
CEM cell extract; cell extract, 37 °C, before second isomer (tR 19.0 min) started to be converted
  conversion of isomer tR 19.3 min to metabolite tR 20.2 min: ≥ 95%
Uninfected cells
  Cytotoxicity MCC: >100 µM

## NC(=O)c1ncn([C@@H]2O[C@H](COP(=O)(N[C@@H](Cc3ccccc3)C(=O)OCc3ccccc3)Oc3cccc4ccccc34)[C@@H](O)[C@H]2O)n1 (stereo partly drawn) [Compound 14, ribavirin-5’-[1-naphthyl(benzoxy-L-phenylalaninyl)] phosphate]
Several viruses
  antiviral activity, all the viruses tested: no or borderline activity
CEM cell extract; CEM cell extract, 37 °C, within 20 min
  conversion of both diastereoisomers (not separable) to metabolite tR 20.2 min: 80%
CEM cell extract; CEM cell extract
  efficiency of conversion among the prodrugs: most efficiently converted
Uninfected cells
  Cytotoxicity MCC: >100 µM

## NC(=O)c1ncn([C@@H]2O[C@H](COP(=O)(NCC(=O)OCc3ccccc3)Oc3cccc4ccccc34)[C@@H](O)[C@H]2O)n1 (stereo partly shown) [Compound 15]
[1]
  fold less active than ribavirin, respiratory syncytial virus: about threefold
Vaccinia virus (HEL)
  fold superior to ribavirin, vaccinia virus replication: 3–5 fold
Punta toro virus (Vero); relative to ribavirin
  fold superior to ribavirin, Punto Toro virus replication: 3–5 fold
CEM cell extract; CEM cell extract
  efficiency of conversion among the prodrugs: least efficiently converted
CEM cell extract; [3]
  conversion of isomer tR 18.8 min to tR 20.2: 10%
  levels of isomer tR 18.5: virtually unaltered
Uninfected cells
  Cytotoxicity MCC: >100 µM

## NC(=O)c1ncn([C@@H]2O[C@H](CO)[C@@H](O)[C@H]2O)n1 [Ribavirin, 1-β-D-ribofuranosyl-1,2,4-triazole-3-carboxamide, reference compound]
Uninfected cells; at 100 μM
  toxicity to uninfected cells: non-toxic
Uninfected cells
  Cytotoxicity MCC: >100 µM
